PubChem BioAssay AID248 (DTP/NCI, 2004)
Values joined by “and” are separate entries in the source; they are usually repeats but may differ in a detail not shown here. Equal values may be shown once. Toxic doses and inconclusive results are not listed. Rule as the data show it: active = T/C of 150% or more; inactive = T/C below 125%.

System: L1210 leukemia ip in BDF1 mice, survival T/C
Test: NCI In Vivo Anticancer Drug Screen. Data for tumor model L1210 Leukemia (intraperitoneal) in B6D2F1 (BDF1) mice
Details: endpoint: mean survival time, higher = longer survival
Outline: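 Ratio derived from survival: compound-dosed mice over vehicle-dosed mice, all bearing a transplantable tumor.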

[1] = dose: 400.0 mg/kg/injection, schedule: Q01DX001 (ip), vehicle: carboxymethylcellulose (CMC)
[2] = dose: 100.0 mg/kg/injection, schedule: Q04DX002 (ip), vehicle: Klucel (hydroxypropylcellulose) (HPC)
[3] = dose: 200.0 mg/kg/injection, schedule: Q04DX002 (ip), vehicle: Klucel (hydroxypropylcellulose) (HPC)
[4] = dose: 400.0 mg/kg/injection, schedule: Q04DX002 (ip), vehicle: Klucel (hydroxypropylcellulose) (HPC)
[5] = dose: 100.0 mg/kg/injection, schedule: Q01DX009 (ip), vehicle: saline
[6] = dose: 100.0 mg/kg/injection, schedule: Q04DX003 (ip), vehicle: saline
[7] = dose: 200.0 mg/kg/injection, schedule: Q01DX009 (ip), vehicle: saline
[8] = dose: 200.0 mg/kg/injection, schedule: Q04DX003 (ip), vehicle: saline
[9] = dose: 400.0 mg/kg/injection, schedule: Q01DX009 (ip), vehicle: saline
[10] = dose: 400.0 mg/kg/injection, schedule: Q04DX003 (ip), vehicle: saline
[11] = dose: 100.0 mg/kg/injection, schedule: Q01DX009 (ip), vehicle: saline with Tween-80
[12] = dose: 200.0 mg/kg/injection, schedule: Q01DX009 (ip), vehicle: saline with Tween-80
[13] = dose: 400.0 mg/kg/injection, schedule: Q01DX009 (ip), vehicle: saline with Tween-80
[14] = dose: 100.0 mg/kg/injection, schedule: Q01DX009 (ip), vehicle: Klucel (hydroxypropylcellulose) (HPC)
[15] = dose: 100.0 mg/kg/injection, schedule: Q04DX003 (ip), vehicle: Klucel (hydroxypropylcellulose) (HPC)
[16] = dose: 200.0 mg/kg/injection, schedule: Q01DX009 (ip), vehicle: Klucel (hydroxypropylcellulose) (HPC)
[17] = dose: 200.0 mg/kg/injection, schedule: Q04DX003 (ip), vehicle: Klucel (hydroxypropylcellulose) (HPC)
[18] = dose: 400.0 mg/kg/injection, schedule: Q01DX009 (ip), vehicle: Klucel (hydroxypropylcellulose) (HPC)
[19] = dose: 400.0 mg/kg/injection, schedule: Q04DX003 (ip), vehicle: Klucel (hydroxypropylcellulose) (HPC)

Measured: T/C

CCCCCCCCCC(=O)N1CCCCC1CC (configuration not stated)
inactive: dose: 100.0 mg/kg/injection, schedule: Q01DX001 (ip), vehicle: carboxymethylcellulose (CMC) 103 % of control | dose: 100.0 mg/kg/injection, schedule: Q01DX009 (ip), vehicle: carboxymethylcellulose (CMC) 94 % of control and 95 % of control | dose: 100.0 mg/kg/injection, schedule: Q04DX002 (ip), vehicle: carboxymethylcellulose (CMC) 100 % of control and 92 % of control | dose: 100.0 mg/kg/injection, schedule: Q04DX003 (ip), vehicle: carboxymethylcellulose (CMC) 92 % of control | dose: 200.0 mg/kg/injection, schedule: Q01DX001 (ip), vehicle: carboxymethylcellulose (CMC) 101 % of control | dose: 200.0 mg/kg/injection, schedule: Q01DX009 (ip), vehicle: carboxymethylcellulose (CMC) 95 % of control and 102 % of control | dose: 200.0 mg/kg/injection, schedule: Q04DX002 (ip), vehicle: carboxymethylcellulose (CMC) 103 % of control and 92 % of control | dose: 200.0 mg/kg/injection, schedule: Q04DX003 (ip), vehicle: carboxymethylcellulose (CMC) 95 % of control | [1] 95 % of control | dose: 400.0 mg/kg/injection, schedule: Q04DX002 (ip), vehicle: carboxymethylcellulose (CMC) 95 % of control and 96 % of control | dose: 400.0 mg/kg/injection, schedule: Q04DX003 (ip), vehicle: carboxymethylcellulose (CMC) 97 % of control

O=S1(=O)C=C2CCCCC21 (configuration not stated)
inactive: dose: 75.0 mg/kg/injection, schedule: Q01DX001 (ip), vehicle: carboxymethylcellulose (CMC) 100 % of control

CCCC1(CCC)c2ccccc2C(CCl)(OCC)c2ccccc21
inactive: dose: 100.0 mg/kg/injection, schedule: Q01DX009 (ip), vehicle: other 91 % of control | dose: 100.0 mg/kg/injection, schedule: Q04DX003 (ip), vehicle: other 100 % of control | dose: 200.0 mg/kg/injection, schedule: Q01DX009 (ip), vehicle: other 88 % of control | dose: 200.0 mg/kg/injection, schedule: Q04DX003 (ip), vehicle: other 103 % of control | dose: 400.0 mg/kg/injection, schedule: Q01DX009 (ip), vehicle: other 92 % of control | dose: 400.0 mg/kg/injection, schedule: Q04DX003 (ip), vehicle: other 95 % of control

CN(Cc1ccccc1)C(=O)NC(C)(C)C
inactive: [2] 121 % of control | [3] 102 % of control | [4] 105 % of control

O=c1ccc2cc(OC3OC(CO)C(O)C(O)C3O)c(O)cc2o1 (configuration not stated)
inactive: dose: 62.5 mg/kg/injection, schedule: Q01DX015 (ip), vehicle: carboxymethylcellulose (CMC) 95 % of control | dose: 125.0 mg/kg/injection, schedule: Q01DX015 (ip), vehicle: carboxymethylcellulose (CMC) 105 % of control | dose: 250.0 mg/kg/injection, schedule: Q01DX015 (ip), vehicle: carboxymethylcellulose (CMC) 100 % of control | [1] 111 % of control | dose: 600.0 mg/kg/injection, schedule: Q01DX001 (ip), vehicle: carboxymethylcellulose (CMC) 90 % of control | dose: 800.0 mg/kg/injection, schedule: Q01DX001 (ip), vehicle: carboxymethylcellulose (CMC) 92 % of control | dose: 1000.0 mg/kg/injection, schedule: Q01DX001 (ip), vehicle: carboxymethylcellulose (CMC) 101 % of control

C=CCOCCO
inactive: [5] 108 % of control | [6] 100 % of control | [7] 108 % of control | [8] 95 % of control | [9] 101 % of control | [10] 100 % of control

CC1(C)COC(c2ccccc2)=N1
inactive: [11] 105 % of control | dose: 100.0 mg/kg/injection, schedule: Q04DX003 (ip), vehicle: saline sonified 93 % of control | [12] 103 % of control | dose: 200.0 mg/kg/injection, schedule: Q04DX003 (ip), vehicle: saline sonified 87 % of control | [13] 102 % of control | dose: 400.0 mg/kg/injection, schedule: Q04DX003 (ip), vehicle: saline sonified 90 % of control

COc1ccc(C(=O)/C=C/c2cccc3ccccc23)cc1
inactive: dose: 100.0 mg/kg/injection, schedule: Q04DX002 (ip), vehicle: saline with Tween-80 86 % of control | dose: 200.0 mg/kg/injection, schedule: Q04DX002 (ip), vehicle: saline with Tween-80 86 % of control | dose: 400.0 mg/kg/injection, schedule: Q04DX002 (ip), vehicle: saline with Tween-80 86 % of control

C=CCn1c(/N=C\N(C)C)cc(=O)[nH]c1=O
inactive: [14] 103 % of control | [15] 97 % of control | [16] 107 % of control | [17] 97 % of control | [18] 100 % of control | [19] 89 % of control

Cc1c2cnccc2c(C)c2c1c1ccccc1n2CCCN1C(=O)c2ccccc2C1=O
inactive: dose: 50.0 mg/kg/injection, schedule: Q04DX003 (ip), vehicle: saline with Tween-80 100 % of control | [11] 104 % of control | dose: 100.0 mg/kg/injection, schedule: Q04DX003 (ip), vehicle: saline with Tween-80 97 % of control | dose: 150.0 mg/kg/injection, schedule: Q01DX001 (oral), vehicle: saline with Tween-80 105 % of control | [12] 102 % of control and 107 % of control | dose: 200.0 mg/kg/injection, schedule: Q04DX003 (ip), vehicle: saline with Tween-80 101 % of control | dose: 300.0 mg/kg/injection, schedule: Q01DX001 (oral), vehicle: saline with Tween-80 112 % of control | [13] 111 % of control and 120 % of control | dose: 400.0 mg/kg/injection, schedule: Q04DX003 (ip), vehicle: saline with Tween-80 117 % of control | dose: 600.0 mg/kg/injection, schedule: Q01DX001 (oral), vehicle: saline with Tween-80 112 % of control | dose: 600.0 mg/kg/injection, schedule: Q01DX009 (ip), vehicle: saline with Tween-80 121 % of control | dose: 1200.0 mg/kg/injection, schedule: Q01DX001 (oral), vehicle: saline with Tween-80 121 % of control

N#Cc1cc[n+](Cc2ccccc2)cc1
inactive: dose: 75.0 mg/kg/injection, schedule: Q01DX001 (ip), vehicle: saline 101 % of control | dose: 150.0 mg/kg/injection, schedule: Q01DX001 (ip), vehicle: saline 102 % of control

CCCC[P+](CCCC)(CCCC)Cc1ccc(C(=O)Oc2ccc([N+](=O)[O-])cc2)cc1
inactive: dose: 25.0 mg/kg/injection, schedule: Q01DX009 (ip), vehicle: Klucel (hydroxypropylcellulose) (HPC) 98 % of control | dose: 25.0 mg/kg/injection, schedule: Q04DX003 (ip), vehicle: Klucel (hydroxypropylcellulose) (HPC) 91 % of control | dose: 50.0 mg/kg/injection, schedule: Q01DX009 (ip), vehicle: Klucel (hydroxypropylcellulose) (HPC) 89 % of control | dose: 50.0 mg/kg/injection, schedule: Q04DX003 (ip), vehicle: Klucel (hydroxypropylcellulose) (HPC) 93 % of control | [14] 102 % of control | [15] 96 % of control and 88 % of control

O=C(Nc1cccc(O)c1)Nc1ccccc1F
inactive: dose: 100.0 mg/kg/injection, schedule: Q01DX001 (ip), vehicle: Klucel (hydroxypropylcellulose) (HPC) 102 % of control | [14] 102 % of control and 90 % of control | [2] 97 % of control and 92 % of control | [15] 103 % of control | dose: 200.0 mg/kg/injection, schedule: Q01DX001 (ip), vehicle: Klucel (hydroxypropylcellulose) (HPC) 104 % of control | [16] 96 % of control and 101 % of control | [3] 98 % of control and 99 % of control | [17] 110 % of control | dose: 400.0 mg/kg/injection, schedule: Q01DX001 (ip), vehicle: Klucel (hydroxypropylcellulose) (HPC) 104 % of control | [18] 98 % of control and 101 % of control | [4] 115 % of control and 89 % of control | [19] 98 % of control

Cc1ccc(C(=O)Cc2ccccc2)cc1
inactive: [2] 94 % of control | [3] 98 % of control | [4] 110 % of control

c1ccc2c(c1)NCCN2
inactive: dose: 12.5 mg/kg/injection, schedule: Q01DX001 (ip), vehicle: saline 97 % of control | dose: 25.0 mg/kg/injection, schedule: Q01DX001 (ip), vehicle: saline 94 % of control

CCN(CC)CCNCCO
inactive: [5] 89 % of control | [6] 95 % of control | [7] 94 % of control | [8] 92 % of control | [9] 89 % of control | [10] 92 % of control
